Key:
fire ant workers [1] = test: Example 14 feeding experiments: fire ant worker mortality
female sexuals (alates) = test: Worker attraction to poison sac extracts of dealates (queen pheromone bioassay); assay type: in vivo, Solenopsis invicta; conditions: extracts from dealates of fed sub-colonies
[2] = test system: monogyne queenright colonies; test: Feeding of monogyne queenright colonies: worker and queen mortality; assay type: in vivo, Solenopsis invicta; conditions: 1% in 10% sucrose, 27 d
From the text: FIGS. 24A and 24B show results for the sucrose (10%) control and two treatments, tyramine (1%) and N-methyl-tyramine (1%), both dissolved in 10% sucrose. The control and test colonies were monogyne queenright colonies, containing a single queen, brood and workers started in the laboratory from newly mated queens collected in the field. The mean number of workers per colony was 8,400±400. […] Previous experiments used queenless sub-colonies, rather than the queenright colonies in these experiments. The mortality effect on colony queens was unexpected, since worker fire ants are completely sterile and cannot reproduce even if the queen dies. Therefore, when the reproductive queen dies no more brood is produced and the colony is no longer functional—it is considered dead. […] Therefore, 80% of the treated colonies were considered dead.

[3] = Solubility in aqueous solution; assay type: physicochemical; conditions: solution
fire ant workers [4] = test: Five biogenic amines fed to fire ant workers as droplets; assay type: in vivo, Solenopsis invicta; conditions: 1% (w/v) as HCl salts in 10% sucrose, 48 h, 60 workers
Procedure: Tyramine is one of five biogenic amines that may be found in insects (e.g., dopamine, histamine, octopamine, serotonin, and tyramine). The experiment in this example tests whether fire ant worker mortality effects observed with tyramine may be a general result of the ants ingesting greater than normal amounts of a biogenic amine. To test this hypothesis groups of 20 fire ant worker ants were starved for 24 hours and fed a 1% (w/v) biogenic amine in 10% sucrose solution. Treatments and sucrose were presented to the worker ants as a 25 microliter droplet on a 2 cm^2 piece of silicon treated filter paper. Each treatment and control were performed in triplicate for a total of 60 worker ants per treatment and control. Mortality was monitored for the first 7-8 h after introduction of the sucrose solutions, then at 24 h. The feeding/monitoring sequence was repeated for another 24 h period for a total of 48 h. The results are shown in FIG. 12A-12B in the form of Kaplan-Meier mortality curves.

[5] = test system: mature female alates (MFAs); test: Injection into MFA abdomen: ovariole development and egg-laying; assay type: in vivo, Solenopsis invicta; conditions: 100 nL of a 1.0% saline solution (1 microgram) injected
From the text: Two measures of ovariole development were used. […] Measurement of ovariole area in the same samples gave a quantitative measure of ovariole development. […] Within the context of a colony this effect would be in direct conflict with the colony queen. Eggs laid would not be fertile and therefore develop into males. Queen pheromone is also produced by […], which would act to reduce the fecundity of the colony queen. For example, in polygyne colonies the higher the number of queens the lower is the mean egg-laying rate/queen due to the presence of excess queen pheromone (see Vander Meer, R. K., et al. (1992), A comparison of queen oviposition rates from monogyne and polygyne fire ant, Solenopsis invicta, colonies.

Structure (SMILES): COc1ccccc1CCN [2-methoxy-phenethylamine]
- fire ant worker mortality versus 10% sucrose control (fire ant workers [1]; 1.0% in 10% sucrose): No difference in mortality

Structure (SMILES): COc1ccc(CCN)cc1Cl [3-chloro-4-methoxyphenethylamine]
- fire ant worker mortality versus 10% sucrose control (fire ant workers [1]; 0.1% in 10% sucrose): significantly different from the 10% sucrose control
- fire ant worker mortality versus 10% sucrose control (fire ant workers [1]; 1.0% in 10% sucrose): significantly different from the 10% sucrose control
- mortality (fire ant workers [1]; 1.0 and 0.1% in 10% sucrose): about 8%

Structure (SMILES): COc1cccc(CCN)c1 [3-methoxy-phenethylamine]
- fire ant worker mortality versus 10% sucrose control (fire ant workers [1]; 1.0% in 10% sucrose): No difference in mortality

Structure (SMILES): NCCc1ccc(Br)cc1 [4-bromophenethylamine, 4-bromo-phenethylamine]
- fire ant worker mortality versus 10% sucrose control (fire ant workers [1]; 1.0% in 10% sucrose): Significant, but low, worker mortality

Structure (SMILES): NCCc1ccc(Cl)cc1 [4-chlorophenethylamine, 4-chloro-phenethylamine]
- fire ant worker mortality versus 10% sucrose control (fire ant workers [1]; 1.0% in 10% sucrose): Significant, but low, worker mortality

Structure (SMILES): NCCc1ccc(F)cc1 [4-flurophenethylamine]
- fire ant worker mortality versus 10% sucrose control (fire ant workers [1]; 1.0% in 10% sucrose): Significant, but low, worker mortality

Structure (SMILES): COc1ccc(CCN)cc1 [4-methoxy-phenethylamine]
- fire ant worker mortality versus 10% sucrose control (fire ant workers [1]; 1.0% in 10% sucrose): No difference in mortality

Structure (SMILES): CN(C)CCc1ccc(O)cc1 [N,N-dimethyl-tyramine]
- fire ant worker mortality versus 10% sucrose control (fire ant workers [1]; 1.0% in 10% sucrose): no difference in mortality

Structure (SMILES): CNCCc1ccc(O)cc1.Cl [N-methyl-tyramine (HCl)]
- fire ant worker mortality versus 10% sucrose control (fire ant workers [1]; 0.01% in 10% sucrose): significantly different from the sucrose control
- speed of worker mortality versus tyramine at the same concentration (fire ant workers [1]; 0.01%, p<0.01): significantly faster than the 0.01% tyramine
- fire ant worker mortality versus 10% sucrose control (fire ant workers [1]; 0.1% in 10% sucrose): significantly different from the sucrose control
- speed of worker mortality versus tyramine at the same concentration (fire ant workers [1]; 0.1%, p=0.22): not significantly faster than the 0.1% tyramine
- fire ant worker mortality versus 10% sucrose control (fire ant workers [1]; 1.0% in 10% sucrose): significantly different from the sucrose control
- speed of worker mortality versus tyramine at the same concentration (fire ant workers [1]; 1.0%, p<0.001): significantly faster worker mortality than the 1.0% tyramine
- speed of action compared to the N-methyl tyramine free-base (fire ant workers [1]; in vivo): appears to be quicker acting

Structure (SMILES): CNCCc1ccc(O)cc1 [N-methyl-tyramine (free base), N-methyl-tyramine]
- worker attraction to poison sac extracts compared among active treatments (female sexuals (alates)): significantly greater worker attraction than poison sac extracts from tyramine treatments
- worker attraction to poison sac extracts versus N,N-dimethyl tyramine treatment and controls (female sexuals (alates)): significantly different from those from the N,N-dimethyl tyramine treatment and the sucrose and hexane controls
- % worker mortality at the end of the experiment versus control [2]: significantly different from the corresponding controls
- fate of colony queens (five replicates) [2]: all queen replicates (5) died
- queen mortality at the end of the experiment versus control [2]: significantly different from the corresponding controls
- colonies considered dead ([2]; five colonies): 100%
- solubility maximum [3]: 1%
- fire ant worker mortality versus 10% sucrose control (fire ant workers [1]; 0.01% in 10% sucrose): significantly different from the 10% sucrose control
- fire ant worker mortality versus 10% sucrose control (fire ant workers [1]; 0.1% in 10% sucrose): significantly different from the 10% sucrose control
- fire ant worker mortality versus 10% sucrose control (fire ant workers [1]; 1.0% in 10% sucrose): significantly different from the 10% sucrose control
- mortality at the two lower concentrations (0.1 and 0.01%) versus the 1.0% concentration (fire ant workers [1]; in 10% sucrose): significantly higher mortality than the 1.0% concentration

Structure (SMILES): NCCc1ccc(O)c(O)c1 [dopamine]
- worker mortality (Kaplan-Meier) (fire ant workers [4]): did not result in significant mortality

Structure (SMILES): CCCCCC(=O)NCCc1ccc(O)cc1 [hexanoyl tyramide]
- ovariole development, ovariole area, compared to controls [5]: not hexanoyl tyramide caused significant ovariole development
- ovariole development, ovary rank 1-4, compared to the control [5]: significant ovariole development
- degradation of the tyramide (MFA mid- and hind-gut): No degradation of the tyramide was observed

Structure (SMILES): NCCc1c[nH]cn1 [histamine]
- worker mortality (Kaplan-Meier) (fire ant workers [4]): did not result in significant mortality

Structure (SMILES): NCC(O)c1ccc(O)cc1 (centres unmarked) [octopamine]
- worker mortality (Kaplan-Meier) (fire ant workers [4]): did not result in significant mortality

Structure (SMILES): NCCc1c[nH]c2ccc(O)cc12 [serotonin]
- worker mortality (Kaplan-Meier) (fire ant workers [4]): did not result in significant mortality

Structure (SMILES): Cl.NCCc1ccc(O)cc1 [tyramine HCl]
- worker mortality (Kaplan-Meier) (fire ant workers [4]): statistically greater mortality than the control and the other 4 biogenic amines
- worker attraction to poison sac extracts compared among active treatments (female sexuals (alates)): not different from tyramine or N-methyl tyramine
- worker attraction to poison sac extracts versus N,N-dimethyl tyramine treatment and controls (female sexuals (alates)): significantly different from those from the N,N-dimethyl tyramine treatment and the sucrose and hexane controls

Reference: patent US10568320B2, “Biologically-based control methods for insect pests” (The United States of America, as represented by the …, priority 2017, dated 2020)
